Laboratory results: ChEMBL document CHEMBL1201862, “PubChem BioAssay data set” (2004)
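1) Cells in 96-well plates. 2) Compound, 48 h, 5 concentrations. 3) Linear interpolation between surrounding doses. 4) Unreached endpoint = highest concentration. GI50 marks 50% less growth.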 Activity calls are given as the source filed them. Cut-off read from the data, not from the text of the source: active = GI50 up to about 1.1 µM and inactive = higher.

What was measured:
Experiment in all cases: inhibition of tumour cell growth, NCI panel, 48 h
[1] = test system: 786-0
[2] = test system: A549
[3] = test system: ACHN
[4] = test system: CAKI-1
[5] = test system: CCRF-CEM
[6] = test system: COLO 205
[7] = test system: DLD-1
[8] = test system: DMS-114
[9] = test system: DMS-273
[10] = test system: EKVX
[11] = test system: HCC 2998
[12] = test system: HCT-116
[13] = test system: HCT-15
[14] = test system: HOP-62
[15] = test system: HT-29
[16] = test system: IGROV-1
[17] = test system: K562
[18] = test system: KM-20L2
[19] = test system: KM12
[20] = test system: LOX IMVI
[21] = test system: LXFL 529
[22] = test system: M14
[23] = test system: M19-MEL
[24] = test system: MOLT-4
[25] = test system: Malme-3M
[26] = test system: NCI-H226
[27] = test system: NCI-H23
[28] = test system: NCI-H460
[29] = test system: NCI-H522
[30] = test system: OVCAR-3
[31] = test system: OVCAR-4
[32] = test system: OVCAR-5
[33] = test system: OVCAR-8
[34] = test system: RPMI-8226
[35] = test system: SF-268
[36] = test system: SF-295
[37] = test system: SF-539
[38] = test system: SK-MEL-28
[39] = test system: SK-MEL-2
[40] = test system: SK-MEL-5
[41] = test system: SK-OV-3
[42] = test system: SN12C
[43] = test system: SNB-19
[44] = test system: SNB-75
[45] = test system: SNB-78
[46] = test system: SR
[47] = test system: SW-620
[48] = test system: U-251
[49] = test system: UACC-257
[50] = test system: UACC-62
[51] = test system: UO-31
[52] = test system: XF498
[53] = test system: HL-60
[54] = test system: HOP-18
[55] = test system: HOP-92
[56] = test system: RXF 393
[57] = test system: TK-10

Question: With COc1cc2c(cc1OC)C(=O)C(C1=C(SC(=N)N)C(=O)c3cc(OC)c(OC)cc31)C2 (centres undefined) as the molecule, how does the GI50 [1] read?
Answer: > 100 µM (inactive)

Question: What about the GI50 [2] of the same molecule?
Answer: > 100 µM (inactive)

Question: And the GI50 [3]?
Answer: > 100 µM (inactive)

Question: And the GI50 [4]?
Answer: > 100 µM (inactive)

Question: What about the GI50 [5] of the same molecule?
Answer: > 100 µM (inactive)

Question: And the GI50 [6]?
Answer: > 100 µM (inactive)

Question: And the GI50 [7]?
Answer: > 100 µM (inactive)

Question: What about the GI50 [8] of the same molecule?
Answer: > 100 µM (inactive)

Question: What about the GI50 [9] of the same molecule?
Answer: > 100 µM (inactive)

Question: And the GI50 [10]?
Answer: > 100 µM (inactive)

Question: And the GI50 [11]?
Answer: > 100 µM (inactive)

Question: And the GI50 [12]?
Answer: > 100 µM (inactive)

Question: And the GI50 [13]?
Answer: > 100 µM

Question: What about the GI50 [14] of the same molecule?
Answer: 71.4 µM (inactive)

Question: What about the GI50 [15] of the same molecule?
Answer: > 100 µM (inactive)

Question: And the GI50 [16]?
Answer: > 100 µM (inactive)

Question: What about the GI50 [17] of the same molecule?
Answer: > 100 µM (inactive)

Question: What about the GI50 [18] of the same molecule?
Answer: > 100 µM (inactive)

Question: What about the GI50 [19] of the same molecule?
Answer: > 100 µM (inactive)

Question: And the GI50 [20]?
Answer: > 100 µM (inactive)

Question: And the GI50 [21]?
Answer: > 100 µM (inactive)

Question: What about the GI50 [22] of the same molecule?
Answer: > 100 µM (inactive)

Question: What about the GI50 [23] of the same molecule?
Answer: > 100 µM (inactive)

Question: And the GI50 [24]?
Answer: > 100 µM (inactive)

Question: And the GI50 [25]?
Answer: > 100 µM (inactive)

Question: What about the GI50 [26] of the same molecule?
Answer: > 100 µM (inactive)

Question: What about the GI50 [27] of the same molecule?
Answer: > 100 µM (inactive)

Question: And the GI50 [28]?
Answer: > 100 µM (inactive)

Question: What about the GI50 [29] of the same molecule?
Answer: > 100 µM (inactive)

Question: What about the GI50 [30] of the same molecule?
Answer: > 100 µM (inactive)

Question: What about the GI50 [31] of the same molecule?
Answer: 78.9 µM (inactive)

Question: What about the GI50 [32] of the same molecule?
Answer: > 100 µM (inactive)

Question: What about the GI50 [33] of the same molecule?
Answer: > 100 µM (inactive)

Question: And the GI50 [34]?
Answer: > 100 µM (inactive)

Question: What about the GI50 [35] of the same molecule?
Answer: > 100 µM (inactive)

Question: What about the GI50 [36] of the same molecule?
Answer: > 100 µM (inactive)

Question: And the GI50 [37]?
Answer: > 100 µM (inactive)

Question: And the GI50 [38]?
Answer: > 100 µM (inactive)

Question: And the GI50 [39]?
Answer: > 100 µM (inactive)

Question: What about the GI50 [40] of the same molecule?
Answer: > 100 µM (inactive)

Question: What about the GI50 [41] of the same molecule?
Answer: > 100 µM (inactive)

Question: And the GI50 [42]?
Answer: > 100 µM (inactive)

Question: And the GI50 [43]?
Answer: > 100 µM (inactive)

Question: What about the GI50 [44] of the same molecule?
Answer: > 100 µM (inactive)

Question: What about the GI50 [45] of the same molecule?
Answer: > 100 µM (inactive)

Question: What about the GI50 [46] of the same molecule?
Answer: > 100 µM (inactive)

Question: And the GI50 [47]?
Answer: > 100 µM (inactive)

Question: And the GI50 [48]?
Answer: > 100 µM (inactive)

Question: What about the GI50 [49] of the same molecule?
Answer: > 100 µM (inactive)

Question: What about the GI50 [50] of the same molecule?
Answer: > 100 µM (inactive)

Question: What about the GI50 [51] of the same molecule?
Answer: > 100 µM (inactive)

Question: And the GI50 [52]?
Answer: > 100 µM (inactive)

Question: FC(F)(F)c1ccc2nc(NCc3ccccc3)c(-c3ccccc3)nc2c1 was tested. Which GI50 [1] did it give?
Answer: 20.3 µM (inactive)

Question: And the GI50 [2]?
Answer: 26.9 µM (inactive)

Question: What about the GI50 [3] of the same molecule?
Answer: 33.2 µM (inactive)

Question: And the GI50 [5]?
Answer: 37.2 µM (inactive)

Question: And the GI50 [6]?
Answer: 37.2 µM (inactive)

Question: And the GI50 [9]?
Answer: 35.2 µM (inactive)

Question: And the GI50 [10]?
Answer: 62.2 µM (inactive)

Question: What about the GI50 [11] of the same molecule?
Answer: 29.9 µM (inactive)

Question: And the GI50 [12]?
Answer: 29 µM (inactive)

Question: What about the GI50 [13] of the same molecule?
Answer: 25.6 µM

Question: And the GI50 [53]?
Answer: 19.3 µM (inactive)

Question: What about the GI50 [54] of the same molecule?
Answer: 35.4 µM (inactive)

Question: And the GI50 [14]?
Answer: 52.1 µM (inactive)

Question: And the GI50 [55]?
Answer: 0.521 µM (active)

Question: What about the GI50 [15] of the same molecule?
Answer: 36 µM (inactive)

Question: And the GI50 [18]?
Answer: 29.5 µM (inactive)

Question: What about the GI50 [20] of the same molecule?
Answer: 26.3 µM (inactive)

Question: And the GI50 [21]?
Answer: 43.3 µM (inactive)

Question: And the GI50 [23]?
Answer: 32.1 µM (inactive)

Question: What about the GI50 [24] of the same molecule?
Answer: 24.7 µM (inactive)

Question: What about the GI50 [25] of the same molecule?
Answer: 25.4 µM (inactive)

Question: What about the GI50 [26] of the same molecule?
Answer: 37.8 µM (inactive)

Question: What about the GI50 [27] of the same molecule?
Answer: 53.7 µM (inactive)

Question: And the GI50 [28]?
Answer: 41 µM (inactive)

Question: And the GI50 [30]?
Answer: 27.6 µM (inactive)

Question: And the GI50 [32]?
Answer: 90.2 µM (inactive)

Question: What about the GI50 [33] of the same molecule?
Answer: 86.3 µM (inactive)

Question: And the GI50 [34]?
Answer: 36.4 µM (inactive)

Question: And the GI50 [56]?
Answer: 20.4 µM (inactive)

Question: What about the GI50 [35] of the same molecule?
Answer: 48.1 µM (inactive)

Question: What about the GI50 [36] of the same molecule?
Answer: 36 µM (inactive)

Question: And the GI50 [37]?
Answer: 30.2 µM (inactive)

Question: What about the GI50 [38] of the same molecule?
Answer: 84.9 µM (inactive)

Question: What about the GI50 [39] of the same molecule?
Answer: 32.9 µM (inactive)

Question: And the GI50 [41]?
Answer: 38.4 µM (inactive)

Question: And the GI50 [42]?
Answer: 36.6 µM (inactive)

Question: And the GI50 [43]?
Answer: 46.2 µM (inactive)

Question: And the GI50 [44]?
Answer: 46.2 µM (inactive)

Question: And the GI50 [45]?
Answer: 38.9 µM (inactive)

Question: What about the GI50 [46] of the same molecule?
Answer: 24.9 µM (inactive)

Question: What about the GI50 [47] of the same molecule?
Answer: 49.4 µM (inactive)

Question: What about the GI50 [57] of the same molecule?
Answer: 29.6 µM (inactive)

Question: And the GI50 [48]?
Answer: 21 µM (inactive)

Question: And the GI50 [49]?
Answer: 28.1 µM (inactive)

Question: And the GI50 [50]?
Answer: 39 µM (inactive)

Question: What about the GI50 [51] of the same molecule?
Answer: 25 µM (inactive)

Question: And the GI50 [52]?
Answer: 15.1 µM (inactive)
